Measured values from PubChem BioAssay AID588383 (NMMLSC, 2011).
pEC50: −log10 of the molar value. Active and inactive are the calls of the source.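 How the source made its calls: active means half-effect concentration at most 10 µM with response change of 30% or more and an acceptable curve fit; inactive means the rest.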

Biological target: GTPase HRas (Homo sapiens) (UniProt P01112)
Assay: wild-type Ras fluorescent GTP binding inhibition – biochemical, multiplex bead flow cytometry, round 1, selectivity assay for Cdc42 probe extension project, SAR follow-up (AID 588383)
Conditions: GST-Ras wt beads, Bodipy-FL-GTP binding; for % response, lower = inhibition: at 100 µM (top of the series)

Chain of GTPase HRas (Homo sapiens) (P01112 whole entry, looked up): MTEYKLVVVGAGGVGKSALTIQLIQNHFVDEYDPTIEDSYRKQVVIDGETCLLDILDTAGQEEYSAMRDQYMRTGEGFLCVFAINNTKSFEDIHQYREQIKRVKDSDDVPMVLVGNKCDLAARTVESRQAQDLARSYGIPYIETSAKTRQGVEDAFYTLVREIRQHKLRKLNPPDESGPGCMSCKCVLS

Row | Compound | % response, lower = inhibition | pEC50
1 | COc1ccc(C2CC(c3ccccc3)=NN2c2ccc(S(N)(=O)=O)cc2)cc1 (centres undefined) | inactive | –
2 | CC1(C)Cc2c(sc(NC(=S)NC(=O)c3ccccc3)c2C(=O)O)CO1 | – | 7.11
3 | O=C(C#Cc1ccccc1)c1cccc([N+](=O)[O-])c1 | inactive | –
4 | NS(=O)(=O)c1ccc(N2N=C(c3ccccc3)CC2c2ccccc2)cc1 (centres undefined) | inactive | –
